These results are taken from patent US20240342196A1, “TARGETING SELECT LIPID SIGNALING TO COUNTER TYPE 1 DIABETES (T1D)” (The UAB Research Foundation, priority 2023, published 2024).

The test system of data set [1] is LPS-activated human macrophages. The settings on record: 100 nM; cited from earlier work.
The test system of another data set is young rats. The settings on record: 10 mg/kg/day; cited from earlier work.
For another data set, the system named is HCA-7 colon cancer cells. The settings on record: 10 μM; cited from earlier work.
Another data set relates to Th1 helper cells. As to the kind of experiment: IFN-γ production by Th1 helper cells in the NOD. The data set is classed as cell-based, mouse. From the text: Type 1 diabetes (T1D) is a consequence of autoimmune destruction of pancreatic islet β-cells, but the involved processes remain unclear. […] The iPLA2β hydrolyzes membrane phospholipids at the sn-2 substituent to release a fatty acid (i.e., arachidonic acid), that is metabolized to generate proinflammatory (pi) lipids. We find that global reduction of iPLA2β reduces T1D incidence. Given the importance of T-lymphocytes in T1D development, we investigated the contribution of iPLA2β-derived lipids (iDLs) from T-lymphocytes with adoptive transfer and ex vitro functional approaches. The CD4^+/8^+ T-cells were purified from pre-diabetic female NOD and NOD.iPLA2β^+/− (HET) spleens. Different combinations of the cells (NOD4+8, NOD4+HET8, and NOD8+HET4) were then administered (i.p. 7.5×10^6: 2.5×10^6) to 4-week-old female immunodeficient NOD.scid mice. We find that scid recipients of a combination that included HET4 or HET8 had higher plasma insulin, decreased insulitis, and increased β-cell mass, compared to recipients of NOD4+NOD8.

In a further data set the test system is NOD mice. As to the kind of experiment: T1D incidence in NOD mice. The settings on record: 30-week monitoring period, vehicle only 75%. The data set is classed as in vivo, mouse. As for the experimental part: To determine the impact of their signaling on T1D incidence, we treated NOD mice with either GP or EC alone starting at 4 weeks of age or in combination, where GP was started at 4 weeks of age and EC was introduced at 10 weeks of age. T1D incidence was recorded when blood glucose levels ≥[…] were measured in two consecutive weeks.

In another data set the test system is human NK cells. The settings on record: 0.01-10 μM, pretreatment 1 h, then 50 ng/ml IL-2, 0.33 μM PGE2, 18 hours; cited from earlier work.
Data set [2] has as its target T1, EP4 (Homo sapiens, UniProt P35408). The settings on record: full antagonist; read-out: IC50 in the functional assay; cited from earlier work.
The next data set concerns NK cells. The settings on record: cited from earlier work.
The target of another data set is T2, EP1 (Homo sapiens, UniProt P34995).
T2 sequence (P34995 1-402): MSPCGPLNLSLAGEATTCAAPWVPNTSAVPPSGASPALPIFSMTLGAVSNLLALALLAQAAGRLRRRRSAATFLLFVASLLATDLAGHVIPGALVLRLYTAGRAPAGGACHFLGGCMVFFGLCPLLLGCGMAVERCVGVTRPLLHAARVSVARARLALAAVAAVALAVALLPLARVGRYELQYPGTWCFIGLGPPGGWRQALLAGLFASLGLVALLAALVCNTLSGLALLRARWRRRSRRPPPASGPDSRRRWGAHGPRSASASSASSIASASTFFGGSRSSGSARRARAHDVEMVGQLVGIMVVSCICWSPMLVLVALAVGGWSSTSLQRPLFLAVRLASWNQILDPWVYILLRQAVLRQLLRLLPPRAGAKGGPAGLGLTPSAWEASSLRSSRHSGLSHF
The settings on record: cited from earlier work.

Data set [3] addresses T1, EP4. The settings on record: CHO cells expressing EP4; 10 μM; cited from earlier work.
In the next data set the target is T3, EP3 (Homo sapiens, UniProt P43115).
T3 sequence (P43115 1-390): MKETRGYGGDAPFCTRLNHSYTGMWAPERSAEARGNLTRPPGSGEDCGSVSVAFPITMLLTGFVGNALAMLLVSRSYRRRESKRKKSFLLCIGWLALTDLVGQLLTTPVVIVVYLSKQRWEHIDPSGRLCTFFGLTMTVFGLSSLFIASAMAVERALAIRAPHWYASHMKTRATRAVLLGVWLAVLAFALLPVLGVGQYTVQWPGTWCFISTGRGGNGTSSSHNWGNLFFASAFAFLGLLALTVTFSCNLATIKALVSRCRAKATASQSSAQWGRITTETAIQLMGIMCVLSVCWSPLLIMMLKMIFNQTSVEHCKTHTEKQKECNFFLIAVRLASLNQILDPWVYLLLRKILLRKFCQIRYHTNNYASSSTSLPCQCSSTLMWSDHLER
The settings on record: cited from earlier work.

Data set [4] has as its target T1, EP4. The settings on record: HEK293 cells expressing EP4; cited from earlier work.
The next data set deals with RAW 264.7 cells. The settings on record: 10 μM; cited from earlier work.
The target in a further data set is EP2 (Homo sapiens, UniProt P43116). The settings on record: cited from earlier work.
In data set [5] the test system is human polymorphonuclear leukocyte (PMNL). The settings on record: read-out: EC50, reduction of human PMNL transendothelial migration; cited from earlier work.
Data set [6] concerns mouse model of peritonitis. The settings on record: 10-100 ng dose; cited from earlier work.

T1 sequence (P35408 whole entry): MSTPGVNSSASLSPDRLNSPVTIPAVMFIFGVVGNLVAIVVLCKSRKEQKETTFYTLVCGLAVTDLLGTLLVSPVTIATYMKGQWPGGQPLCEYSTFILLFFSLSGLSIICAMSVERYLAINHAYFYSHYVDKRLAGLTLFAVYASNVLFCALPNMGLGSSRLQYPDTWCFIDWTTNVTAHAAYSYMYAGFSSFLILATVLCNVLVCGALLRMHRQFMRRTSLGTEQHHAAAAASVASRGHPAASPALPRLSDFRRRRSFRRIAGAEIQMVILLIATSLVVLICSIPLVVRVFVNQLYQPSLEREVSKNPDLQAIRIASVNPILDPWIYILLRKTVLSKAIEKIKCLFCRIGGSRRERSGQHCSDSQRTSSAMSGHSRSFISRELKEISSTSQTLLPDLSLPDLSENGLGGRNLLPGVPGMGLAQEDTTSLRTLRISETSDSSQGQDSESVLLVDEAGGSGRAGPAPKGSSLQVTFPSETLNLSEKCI
Sequence of EP2 (P43116 whole entry): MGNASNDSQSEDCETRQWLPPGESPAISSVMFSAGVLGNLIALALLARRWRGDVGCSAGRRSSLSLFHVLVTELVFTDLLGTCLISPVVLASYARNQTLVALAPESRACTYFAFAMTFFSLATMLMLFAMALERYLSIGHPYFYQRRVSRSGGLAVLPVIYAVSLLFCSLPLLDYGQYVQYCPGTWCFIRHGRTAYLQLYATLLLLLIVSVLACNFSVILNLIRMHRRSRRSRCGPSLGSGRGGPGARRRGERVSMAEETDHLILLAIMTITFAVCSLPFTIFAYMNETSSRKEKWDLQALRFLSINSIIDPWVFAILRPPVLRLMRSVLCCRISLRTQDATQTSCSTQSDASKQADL

Regarding `CCCCc1nn(-c2ccccc2C(F)(F)F)c(=O)n1Cc1ccc(-c2ccccc2S(=O)(=O)NC(=O)c2sccc2C)cc1` [L-161,982], in data set [1], the “anti-inflammatory action of PGE2” value is given as “reverses”. Moreover, in the data set with young rats, the PGE2-stimulated bone formation entry is recorded as “suppresses”. The PGE2-induced cell proliferation result with HCA-7 colon cancer cells was “blocks”.

For `CCc1nc2c(C)nc(C)cc2n1-c1ccc(CCNC(=O)NS(=O)(=O)c2ccc(C)cc2)cc1` [grapiprant], the “IFN-γ production by Th1 helper cells” value in the data set on Th1 helper cells was “significantly reduced”. Moreover, in the data set on NOD mice, the T1D incidence turned out to be 50%.

The term IC50 denotes the midpoint of a concentration-inhibition curve. Consider `O=C(O)c1ccc(C2(NC(=O)c3cccc4ccn(Cc5ccc(C(F)(F)F)cc5)c34)CC2)cc1` [MF-766], for which, in the data set with human NK cells, the “PGE2-suppressed IFN-γ secretion” value is “reverses”. Further, the IC50 at EP4 [2] was 1.4 nM. In addition, in the data set with NK cells, the NK cell viability result is recorded as “not affected”.

For the molecule `C/C=C/c1nnn(Cc2ccc(C(F)(F)F)cc2)c1C(=O)N[C@@H](C)c1ccc(C(=O)O)cc1` [EP4 receptor antagonist 1], the IC50 at EP1, on EP3 and at EP2 was over 10000 nM in each case. Moreover, the “ERK phosphorylation induced by PGE2” value at EP4 [3] was “reverses”. Further, on EP4 [4], the “PGE2-induced β-arrestin recruitment” value was “inhibits”. The “GM-CSF-induced expression of II1b, II4ra, II6, Arg1, Cox2, and II10” value with RAW 264.7 cells was “decreases”.

For `CC/C=C\C[C@H](O)/C=C/C=C\C=C\C=C\[C@@H](O)[C@@H](O)C/C=C\CCC(=O)O` [RvD1], the EC50 in data set [5] was about 30 nM. In addition, the “maximal inhibition of leukocyte infiltration” value in data set [6] was about 35%.

Take `CC[C@H](C)C(=O)N1CCC(NC(=O)Nc2ccc(OC(F)(F)F)c(F)c2)CC1` [EC5026]: the “IFN-γ production by Th1 helper cells” value with Th1 helper cells is recorded as “significantly reduced”. The T1D incidence result with NOD mice was “without effect”.

`CC/C=C\C[C@@H](O)/C=C/C=C\C=C\C=C\[C@@H](O)[C@@H](O)C/C=C\CCC(=O)O` [17 (R)-epimer of RvD1]: in data set [5], the EC50 was about 30 nM. Also, the “maximal inhibition of leukocyte infiltration” value in data set [6] is about 35%.
